Legend:
Assay type in all cases: binding
Conditions in all cases: Compound Concentration 10 µM
panel of 442 kinases [1] = molecular target: T1, panel of 442 kinases (Homo sapiens, UniProt P48729)
T1 construct: purchased KINOMEscan
Text: (§1) We assessed the selectivity of members of this scaffold using the KINOMEscan methodology across a near comprehensive panel of 442 kinases [[18,27]].

panel of 442 kinases [2] = molecular target: T2, panel of 442 kinases (Homo sapiens, UniProt Q6XUX3)
T2 construct: purchased KINOMEscan
T2 sequence (Q6XUX3 1-929): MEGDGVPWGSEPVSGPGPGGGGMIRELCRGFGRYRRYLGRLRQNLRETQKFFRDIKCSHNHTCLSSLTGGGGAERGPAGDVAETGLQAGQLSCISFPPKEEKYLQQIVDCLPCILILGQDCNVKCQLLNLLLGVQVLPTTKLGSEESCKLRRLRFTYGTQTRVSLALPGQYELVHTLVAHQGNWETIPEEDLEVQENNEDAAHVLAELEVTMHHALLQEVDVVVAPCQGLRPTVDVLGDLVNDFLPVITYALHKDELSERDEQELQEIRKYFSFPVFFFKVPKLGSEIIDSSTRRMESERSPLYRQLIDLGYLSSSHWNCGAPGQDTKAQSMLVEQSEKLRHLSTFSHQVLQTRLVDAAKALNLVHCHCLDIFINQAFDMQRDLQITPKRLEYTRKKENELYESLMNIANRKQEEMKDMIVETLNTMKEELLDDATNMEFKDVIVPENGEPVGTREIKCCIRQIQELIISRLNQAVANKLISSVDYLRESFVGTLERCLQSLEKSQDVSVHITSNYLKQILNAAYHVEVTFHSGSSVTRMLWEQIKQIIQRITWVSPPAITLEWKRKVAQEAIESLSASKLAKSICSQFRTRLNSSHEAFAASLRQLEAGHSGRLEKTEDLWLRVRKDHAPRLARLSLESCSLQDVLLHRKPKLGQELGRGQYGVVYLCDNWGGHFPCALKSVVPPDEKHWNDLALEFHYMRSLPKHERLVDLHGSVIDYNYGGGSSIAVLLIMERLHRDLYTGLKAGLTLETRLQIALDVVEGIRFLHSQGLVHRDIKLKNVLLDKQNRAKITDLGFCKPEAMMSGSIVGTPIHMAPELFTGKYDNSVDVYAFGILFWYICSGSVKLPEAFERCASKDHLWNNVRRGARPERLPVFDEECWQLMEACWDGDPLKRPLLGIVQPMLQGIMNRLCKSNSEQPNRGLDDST
Text: as §1

panel of 442 kinases [3] = molecular target: T3, panel of 442 kinases (Homo sapiens, UniProt P42336, H1047L)
T3 construct: purchased KINOMEscan
T3 sequence (P42336 whole entry H1047L): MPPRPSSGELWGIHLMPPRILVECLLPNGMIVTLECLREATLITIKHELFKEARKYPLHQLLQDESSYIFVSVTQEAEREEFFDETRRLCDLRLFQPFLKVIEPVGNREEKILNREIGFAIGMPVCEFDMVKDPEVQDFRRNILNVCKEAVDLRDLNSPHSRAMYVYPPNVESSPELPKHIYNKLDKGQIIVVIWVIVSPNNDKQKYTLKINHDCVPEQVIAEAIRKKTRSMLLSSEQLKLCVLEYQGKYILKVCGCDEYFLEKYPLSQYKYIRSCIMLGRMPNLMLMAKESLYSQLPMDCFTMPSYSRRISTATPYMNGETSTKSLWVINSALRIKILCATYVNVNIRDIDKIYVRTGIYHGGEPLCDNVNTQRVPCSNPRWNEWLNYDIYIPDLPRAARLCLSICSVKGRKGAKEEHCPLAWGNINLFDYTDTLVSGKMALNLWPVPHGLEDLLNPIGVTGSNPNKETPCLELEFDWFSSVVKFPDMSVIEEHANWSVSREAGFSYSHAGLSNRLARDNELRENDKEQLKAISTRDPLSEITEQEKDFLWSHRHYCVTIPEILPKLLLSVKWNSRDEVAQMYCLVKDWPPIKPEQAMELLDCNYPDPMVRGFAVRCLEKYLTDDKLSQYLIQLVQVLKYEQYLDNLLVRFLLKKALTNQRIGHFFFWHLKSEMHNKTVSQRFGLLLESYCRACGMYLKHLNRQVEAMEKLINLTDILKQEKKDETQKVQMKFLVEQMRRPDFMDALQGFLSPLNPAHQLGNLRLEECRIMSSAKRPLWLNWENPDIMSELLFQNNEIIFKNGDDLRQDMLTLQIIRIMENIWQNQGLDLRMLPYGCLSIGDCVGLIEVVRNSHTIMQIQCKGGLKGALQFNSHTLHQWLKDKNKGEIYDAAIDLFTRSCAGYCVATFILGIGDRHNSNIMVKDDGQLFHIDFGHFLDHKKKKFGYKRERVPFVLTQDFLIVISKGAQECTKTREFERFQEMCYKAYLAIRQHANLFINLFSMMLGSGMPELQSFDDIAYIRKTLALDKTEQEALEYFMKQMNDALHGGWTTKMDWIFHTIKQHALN
Text: as §1

T1 sequence (P48729 whole entry): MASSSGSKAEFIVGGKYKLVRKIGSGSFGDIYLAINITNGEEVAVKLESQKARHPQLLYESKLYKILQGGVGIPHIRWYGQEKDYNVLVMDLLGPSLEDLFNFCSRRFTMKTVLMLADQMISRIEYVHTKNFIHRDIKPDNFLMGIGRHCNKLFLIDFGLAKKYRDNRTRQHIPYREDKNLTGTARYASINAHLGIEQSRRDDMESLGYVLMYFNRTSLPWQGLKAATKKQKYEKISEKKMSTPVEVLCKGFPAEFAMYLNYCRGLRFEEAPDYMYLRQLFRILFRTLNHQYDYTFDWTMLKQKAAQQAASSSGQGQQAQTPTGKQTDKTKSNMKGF

Structure (SMILES) | KINOMEscan: CSNK1A1 (panel of 442 kinases [1]) | KINOMEscan: RIPK5 (panel of 442 kinases [2]) | KINOMEscan: PIK3CA(H1047L) (panel of 442 kinases [3])
COc1cc(C(=O)N2CCC(N3CCN(C)CC3)CC2)ccc1Nc1ncc2c(n1)N(C)c1ccccc1C(=O)N2C [15 (LRRK2-IN-1)] | 100 | 16 | 20
COc1cc(C(=O)N2CCC(N3CCN(C)CC3)CC2)ccc1Nc1ncc2c(n1)N1CCc3cccc(c31)C(=O)N2C [Compound 24] | – | 24 | 94
COc1cc(C(=O)N2CCC(N3CCN(C)CC3)CC2)ccc1Nc1ncc2c(n1)N(C1CCCC1)c1ccccc1C(=O)N2C [Compound 25, 11-cyclopentyl-2-((2-methoxy-4-(4-(4-methylpiperazin-1-yl)piperidine-1-carbonyl)phenyl)amino)-5-methyl-5H-benzo[e]pyrimido[5,4-b][1,4]diazepin-6(11H)-one] | 100 | 4.9 | 100
CCOc1cc(C(=O)N2CCC(N3CCN(C)CC3)CC2)ccc1Nc1ncc2c(n1)N(C1CCCC1)c1ccccc1C(=O)N2C [Compound 26] | 100 | 16 | 90

Source: paper PMC3914206
